molecular target: MALT1 (Homo sapiens (Human), UniProt Q9UDY8); test: MALT1 enzymatic activity inhibition (fluorescence, Ac-LRSR-AMC substrate); assay type: biochemical; settings: recombinant MALT1 1.5 ng/μl, Ac-LRSR-AMC 1 μM
Description: Compound activity was determined using recombinant MALT1 protein (Creative Biomart, Cat #MALT1-28H) and Ac-LRSR-AMC Substrate in an in vitro enzymatic reaction. The enzymatic assay used to determine activity was a Fluorescence assay using a Microplate Reader ClarioStar Plus. The enzymatic reaction was carried out in 1× Assay Buffer (50 mM HEPES pH 7.2-7.4, 100 mM NaCl, 900 mM Sodium citrate, 10 mM DTT). The compounds were dispensed on a 384-well Diamond Well Plate (Axygen, Cat #P-384-120SQ-C—S) using the Biomek FX liquid handling system at 100× solutions of compounds in DMSO. 2.5×MALT1 mix (final concentration 1.5 ng/μl of MALT1) was prepared in 1× Assay Buffer and 8 μl of mixture per well were added into 384w white Reaction Plates with NBS (Corning, Cat #4513). 8 μl of 1× Assay Buffer were used for negative control. Plates were centrifuged for 1 min at 200 g. Next, the compounds were added to Reaction plates using Biomek station via following steps: 1 μl of 100× compounds (in DMSO) was mixed thoroughly with 19 μl of 1× Assay Buffer, then 4 μl of this mixture were added to Reaction plates with 8 μl of MALT1 mix. Plates were centrifuged for 1 min at 200 g and incubated for 10 minutes at rt. Next, 2.5× Ac-LRSR-AMC mix (final concentration 1 μM of Ac-LRSR-AMC) was prepared in 1× Assay Buffer and 8 μl of mixture per well were added to Reaction Plates using Biomek station. Plates were centrifuged for 1 min at 200 g, then the fluorescence was measured immediately using Microplate Reader. Plates were incubated for 30 minutes at 37° C., then for 30 minutes at rt. The fluorescence was measured after the whole incubation using Microplate Reader. The reaction signal was calculated as the subtraction of the first data set values from the second. The % inhibition was then used to calculate the IC50 values. The results of this assay are shown in the Table A. The values of EC50 shown as a letters A-E, where: A≤0.2 μM; 0.2 μM<B≤0.5 μM; 0.5 μM<C≤1 μM; 1<D≤5 μM; E >5.

MALT1, sequence (Q9UDY8 whole entry): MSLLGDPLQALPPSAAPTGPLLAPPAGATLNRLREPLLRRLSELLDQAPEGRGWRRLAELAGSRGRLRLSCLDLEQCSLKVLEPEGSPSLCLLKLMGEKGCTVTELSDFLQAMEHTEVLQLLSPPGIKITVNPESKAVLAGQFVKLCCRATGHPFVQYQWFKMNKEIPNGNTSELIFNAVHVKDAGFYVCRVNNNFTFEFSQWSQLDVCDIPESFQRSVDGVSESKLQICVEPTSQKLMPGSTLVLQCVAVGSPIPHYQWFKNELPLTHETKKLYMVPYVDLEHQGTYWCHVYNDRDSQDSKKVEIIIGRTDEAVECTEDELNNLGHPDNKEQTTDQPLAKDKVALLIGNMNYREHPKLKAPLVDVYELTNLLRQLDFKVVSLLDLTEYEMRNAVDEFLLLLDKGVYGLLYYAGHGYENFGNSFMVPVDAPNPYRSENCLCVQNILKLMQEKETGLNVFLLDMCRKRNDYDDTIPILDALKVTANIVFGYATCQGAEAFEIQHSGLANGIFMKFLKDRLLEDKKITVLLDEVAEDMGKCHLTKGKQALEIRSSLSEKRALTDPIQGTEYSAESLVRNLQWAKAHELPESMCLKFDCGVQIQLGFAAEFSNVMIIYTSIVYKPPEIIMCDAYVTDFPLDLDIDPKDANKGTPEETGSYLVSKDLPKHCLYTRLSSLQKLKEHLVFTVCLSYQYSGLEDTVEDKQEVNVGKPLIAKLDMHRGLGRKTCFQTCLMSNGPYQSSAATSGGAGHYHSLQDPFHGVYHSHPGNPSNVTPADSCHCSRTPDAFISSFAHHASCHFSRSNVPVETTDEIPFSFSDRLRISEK

Compound	EC50 [µM]
Cc1cc(NC(=O)Nc2cnc3c(Cl)cnn3c2C2CCCC2)cnc1-c1noc(CCCCN2CCN(c3ccc4c(c3)CN(C3CCC(=O)NC3=O)C4=O)CC2)n1 (centres unmarked) [Compound 20, 1-(3-chloro-7-cyclopentyl-pyrazolo[1,5-a]pyrimidin-6-yl)-3-[6-[5-[4-[4-[2-(2,6-dioxo-3-piperidyl)-1-oxo-isoindolin-5-yl]piperazin-1-yl]butyl]-1,2,4-oxadiazol-3-yl]-5-methyl-3-pyridyl]urea]	1 to 5
Cc1cc(NC(=O)Nc2cnc3ccnn3c2C2CCCC2)cnc1-c1noc(CCCCN2CCN(c3ccc4c(c3)CN(C3CCC(=O)NC3=O)C4=O)CC2)n1 (centres unmarked) [Compound 21, 1-(7-cyclopentylpyrazolo[1,5-a]pyrimidin-6-yl)-3-[6-[5-[4-[4-[2-(2,6-dioxo-3-piperidyl)-1-oxo-isoindolin-5-yl]piperazin-1-yl]butyl]-1,2,4-oxadiazol-3-yl]-5-methyl-3-pyridyl]urea]	≤ 0.2
O=C1CCC(N2Cc3cc(N4CCN(CCCCc5nc(-c6ncc(NC(=O)Nc7cnc8c(Cl)cnn8c7C7CCCC7)cc6Cl)no5)CC4)ccc3C2=O)C(=O)N1 (centres unmarked) [Compound 22, N-(3-Chloro-7-cyclopentylpyrazolo[1,5-a]pyrimidin-6-yl)-N′-{5-chloro-6-[5-(4-{4-[2-(2,6-dioxopiperidin-3-yl)-1-oxo-2,3-dihydro-1H-isoindol-5-yl]piperazin-1-yl}butyl)-1,2,4-oxadiazol-3-yl]pyridin-3-yl}urea]	1 to 5
Cc1cc(NC(=O)Nc2cnc3c(Cl)cnn3c2C2CCCC2)cnc1-c1noc(CCCN2CCN(c3cc4c(cc3F)C(=O)N(C3CCC(=O)NC3=O)C4=O)CC2)n1 (centres unmarked) [Compound 24, 1-(3-chloro-7-cyclopentyl-pyrazolo[1,5-a]pyrimidin-6-yl)-3-[6-[5-[3-[4-[2-(2,6-dioxo-3-piperidyl)-6-fluoro-1,3-dioxo-isoindolin-5-yl]piperazin-1-yl]propyl]-1,2,4-oxadiazol-3-yl]-5-methyl-3-pyridyl]urea]	1 to 5
CO[C@@H](C)c1c(NC(=O)Nc2cc(Cl)cnc2OCCNC(=O)CCOCCN2CCN(c3ccc4c(c3)CN(C3CCC(=O)NC3=O)C4=O)CC2)cnc2ccnn12 (stereo partly drawn) [Compound 25, N-[2-[[5-chloro-3-[[7-[(1S)-1-methoxyethyl]pyrazolo[1,5-a]pyrimidin-6-yl]carbamoylamino]-2-pyridyl]oxy]ethyl]-3-[2-[4-[2-(2,6-dioxo-3-piperidyl)-1-oxo-isoindolin-5-yl]piperazin-1-yl]ethoxy]propanamide]	0.2 to 0.5
COc1cc(-c2c(NC(=O)Nc3cnc(N4CCN(C(=O)COCC(=O)Nc5cccc6c5C(=O)N(C5CCC(=O)NC5=O)C6=O)CC4)c(C)c3)cnc3ccnn23)cc(OC)c1OC (centres unmarked) [Compound 26, N-[2-(2,6-dioxo-3-piperidyl)-1,3-dioxo-isoindolin-4-yl]-2-[2-[4-[3-methyl-5-[[7-(3,4,5-trimethoxyphenyl)pyrazolo[1,5-a]pyrimidin-6-yl]carbamoylamino]-2-pyridyl]piperazin-1-yl]-2-oxo-ethoxy]acetamide]	> 5
COc1cc(-c2c(NC(=O)Nc3cnc(NCCOCCOCCC(=O)N4CCN(c5ccc6c(c5)CN(C5CCC(=O)NC5=O)C6=O)CC4)c(C)c3)cnc3ccnn23)cc(OC)c1OC (centres unmarked) [Compound 27, 1-[6-[2-[2-[3-[4-[2-(2,6-dioxo-3-piperidyl)-1-oxo-isoindolin-5-yl]piperazin-1-yl]-3-oxo-propoxy]ethoxy]ethylamino]-5-methyl-3-pyridyl]-3-[7-(3,4,5-trimethoxyphenyl)pyrazolo[1,5-a]pyrimidin-6-yl]urea]	> 5
COc1cc(-c2c(NC(=O)Nc3cnc(-n4cc(C(=O)NCCOCCOCCC(=O)N5CCN(c6ccc7c(c6)CN(C6CCC(=O)NC6=O)C7=O)CC5)cn4)c(C)c3)cnc3ccnn23)cc(OC)c1OC (centres unmarked) [Compound 28, N-[2-[2-[3-[4-[2-(2,6-dioxo-3-piperidyl)-1-oxo-isoindolin-5-yl]piperazin-1-yl]-3-oxo-propoxy]ethoxy]ethyl]-1-[3-methyl-5-[[7-(3,4,5-trimethoxyphenyl)pyrazolo[1,5-a]pyrimidin-6-yl]carbamoylamino]-2-pyridyl]pyrazole-4-carboxamide]	> 5
